Assay results from US7476673B2, “Disubstituted chalcone oximes as selective agonists of RARγ retinoid receptors” (Allergan, Inc., priority 2003, dated 2009).

Legend:
RARβ [1] = target: T1, RARβ (Homo sapiens, UniProt P10826); test: chimeric receptor transactivation assay, RARβ; assay type: cell-based; conditions: for EC50: chimeric receptor transactivation, read-out: RAR EC50 β; for % Efficiency β: percentage of maximum compared to standard TTNPB
T1 sequence (P10826 183-455 limits assumed): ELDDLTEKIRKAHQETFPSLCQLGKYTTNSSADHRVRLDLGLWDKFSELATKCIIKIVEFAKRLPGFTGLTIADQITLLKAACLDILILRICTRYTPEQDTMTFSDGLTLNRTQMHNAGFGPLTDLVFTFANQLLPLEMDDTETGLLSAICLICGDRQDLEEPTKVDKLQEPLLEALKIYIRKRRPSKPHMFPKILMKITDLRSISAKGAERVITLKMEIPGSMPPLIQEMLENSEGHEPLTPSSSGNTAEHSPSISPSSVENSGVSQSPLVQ
Method: (§1) The compounds of the invention were tested in certain assays for activity as agonists of RAR and RXR retinoid receptors. Specifically, one such assay is a chimeric receptor transactivation assay which tests for agonist-like activity in the RARα, RARβ and RARγ receptor subtypes, and which is based on work published by Feigner P. L. and Holm M. (1989) Focus, 112 is described in detail in U.S. Pat. No. 5,455,265. The specification of U.S. Pat. No. 5,455,265 is hereby expressly incorporated by reference.
(§2) A holoreceptor transactivation assay and a ligand binding assay which measure the antagonist/agonist like activity of the compounds of the invention, or their ability to bind to the several retinoid receptor subtypes, respectively, are described in published PCT Application No. WO WO93/11755 (particularly on pages 30-33 and 37-41) published on Jun. 24, 1993, the specification of which is also incorporated herein by reference. A detailed experimental procedure for holoreceptor transactivations has been described by Heyman et al. Cell 68, 397-406, (1992); Allegretto et al. J. Biol. Chem. 268, 26625-26633, and Mangelsdorf et al. The Retinoids: Biology, Chemistry and Medicine, pp 319-349, Raven Press Ltd., New York, which are expressly incorporated herein by reference. The results obtained in this assay are expressed in EC50 numbers, as they are also in the chimeric receptor transactivation assay. The results of the ligand binding assay are expressed in Ki numbers. (See Cheng et al. Biochemical Pharmacology Vol. 22 pp 3099-3108, expressly incorporated herein by reference.)
(§3) Efficacy in a transactivation assay is expressed as a percentage of the maximum potency attained by the compound compared to a standard which, in this case, is the compound 4-[(1E)-2-(5,6,7,8-tetrahydro-5,5,8,8-tetramethyl-2-naphthalenyl)-1-propenyl]-benzoic acid. (TTNPB) This standard compound is described in PCT Publication WO 2002077169 A2.
(§4) Table 1 discloses the activity of certain exemplary compounds of the invention in the above-described chimeric RAR receptor transactivation and binding assays.

RARγ [2] = target: T2, RARγ (Homo sapiens, UniProt P13631); test: ligand binding assay, RARγ; conditions: results expressed in Ki numbers, read-out: RAR Binding γ
T2 sequence (P13631 1-454): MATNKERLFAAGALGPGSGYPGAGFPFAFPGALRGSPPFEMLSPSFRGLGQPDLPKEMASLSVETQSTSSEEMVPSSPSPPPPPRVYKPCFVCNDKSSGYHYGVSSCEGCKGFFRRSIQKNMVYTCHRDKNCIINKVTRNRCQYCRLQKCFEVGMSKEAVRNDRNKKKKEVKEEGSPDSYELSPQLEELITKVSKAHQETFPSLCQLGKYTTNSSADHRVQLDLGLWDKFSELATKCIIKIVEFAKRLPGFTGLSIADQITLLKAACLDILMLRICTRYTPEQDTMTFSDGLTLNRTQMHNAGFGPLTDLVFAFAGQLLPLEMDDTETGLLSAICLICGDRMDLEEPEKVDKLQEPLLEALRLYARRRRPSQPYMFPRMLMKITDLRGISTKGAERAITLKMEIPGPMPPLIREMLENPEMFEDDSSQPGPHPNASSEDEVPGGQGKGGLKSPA
From the text: as §2, §4

RARβ [3] = target: T3, RARβ (Homo sapiens, UniProt P10826); test: ligand binding assay, RARβ; conditions: results expressed in Ki numbers, read-out: RAR Binding β
T3 sequence (P10826 1-455): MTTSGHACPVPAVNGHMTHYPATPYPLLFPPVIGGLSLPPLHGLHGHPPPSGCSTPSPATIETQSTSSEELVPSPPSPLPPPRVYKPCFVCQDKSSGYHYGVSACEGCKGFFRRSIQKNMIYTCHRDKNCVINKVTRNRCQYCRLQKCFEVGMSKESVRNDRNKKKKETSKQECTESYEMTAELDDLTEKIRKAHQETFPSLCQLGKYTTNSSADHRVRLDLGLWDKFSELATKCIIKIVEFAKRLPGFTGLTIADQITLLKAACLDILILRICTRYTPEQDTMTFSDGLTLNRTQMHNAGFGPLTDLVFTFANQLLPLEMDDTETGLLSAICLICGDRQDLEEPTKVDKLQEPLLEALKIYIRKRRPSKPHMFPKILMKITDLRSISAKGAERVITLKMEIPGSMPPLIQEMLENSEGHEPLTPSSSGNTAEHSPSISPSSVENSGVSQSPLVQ
From the text: as §2, §4

RARα [4] = target: T4, RARα (Homo sapiens, UniProt P10276); test: ligand binding assay, RARα; conditions: results expressed in Ki numbers, read-out: RAR Binding α
T4 sequence (P10276 1-462): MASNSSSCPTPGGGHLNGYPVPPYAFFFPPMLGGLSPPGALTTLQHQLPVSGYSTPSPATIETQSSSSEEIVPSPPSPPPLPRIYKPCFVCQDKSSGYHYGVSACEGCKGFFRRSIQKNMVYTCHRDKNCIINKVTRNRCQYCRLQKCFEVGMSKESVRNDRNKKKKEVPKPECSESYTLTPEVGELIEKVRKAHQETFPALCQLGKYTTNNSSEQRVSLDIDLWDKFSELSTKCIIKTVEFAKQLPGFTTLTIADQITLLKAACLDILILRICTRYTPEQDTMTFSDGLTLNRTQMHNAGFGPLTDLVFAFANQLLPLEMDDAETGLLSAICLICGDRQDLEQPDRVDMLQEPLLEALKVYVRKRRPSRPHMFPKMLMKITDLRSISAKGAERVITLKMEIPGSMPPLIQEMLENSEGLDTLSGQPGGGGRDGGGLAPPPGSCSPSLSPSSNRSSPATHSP
From the text: as §2, §4

RARγ [5] = target: T5, RARγ (Homo sapiens, UniProt P13631); test: chimeric receptor transactivation assay, RARγ; assay type: cell-based; conditions: for EC50: chimeric receptor transactivation, read-out: RAR EC50 γ; for % Efficiency γ: percentage of maximum compared to standard TTNPB
T5 construct: % Efficiency γ; other: percentage of maximum compared to standard TTNPB
T5 sequence (P13631 185-454 limits assumed): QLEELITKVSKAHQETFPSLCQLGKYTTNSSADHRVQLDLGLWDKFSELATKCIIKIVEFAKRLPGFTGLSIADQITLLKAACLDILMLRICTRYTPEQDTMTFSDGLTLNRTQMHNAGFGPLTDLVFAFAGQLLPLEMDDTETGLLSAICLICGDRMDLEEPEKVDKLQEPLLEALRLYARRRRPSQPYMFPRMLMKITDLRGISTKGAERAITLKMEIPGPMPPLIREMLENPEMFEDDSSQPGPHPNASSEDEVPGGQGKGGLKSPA
Method: as §1, §2, §3, §4

RARα [6] = target: T6, RARα (Homo sapiens, UniProt P10276); test: chimeric receptor transactivation assay, RARα; assay type: cell-based; conditions: for EC50: chimeric receptor transactivation, read-out: RAR EC50 α; for % Efficiency α: percentage of maximum compared to standard TTNPB
T6 sequence (P10276 183-417 limits assumed): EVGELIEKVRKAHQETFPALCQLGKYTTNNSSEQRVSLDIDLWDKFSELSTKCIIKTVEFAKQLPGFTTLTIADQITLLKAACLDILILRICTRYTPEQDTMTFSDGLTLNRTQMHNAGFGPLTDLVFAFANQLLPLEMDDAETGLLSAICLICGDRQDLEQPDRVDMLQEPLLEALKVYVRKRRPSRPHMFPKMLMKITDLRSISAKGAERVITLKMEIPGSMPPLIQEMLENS
Method: as §1, §2, §3, §4

SMILES	EC50 (RARβ [1])	% Efficiency β (RARβ [1])	Ki (RARγ [2])	Ki (RARβ [3])	Ki (RARα [4])	EC50 (RARγ [5])	% Efficiency γ (RARγ [5])	EC50 (RARα [6])	% Efficiency α (RARα [6])
Cc1cc2c(cc1C(C=Cc1ccc(C(=O)O)cc1)=NO)C(C)(C)CCC2(C)C [drawing 36]	3440 nM	41%	583 nM	17000 nM	8000 nM	23 nM	48%	> 1000 nM	–
CC1=CCC(C)(C)c2cc(C(/C=C/c3ccc(C(=O)O)cc3)=N\O)ccc21	94 nM	104%	36 nM	3000 nM	4000 nM	4 nM	95%	515 nM	50%
CC1(C)CCCc2ccc(C(/C=C/c3ccc(C(=O)O)cc3F)=N\O)cc21	4060 nM	95%	132 nM	7000 nM	2100 nM	14 nM	123%	345 nM	120%
CC1(C)CC(C)(C)c2cc(C(C=Cc3ccc(C(=O)O)cc3)=NO)ccc2O1 [drawing 25]	93 nM	97%	10000 nM	5000 nM	5000 nM	57 nM	95%	135 nM	60%
COc1cc2c(cc1C(/C=C/c1ccc(C(=O)O)cc1)=N\O)C(C)(C)CCC2(C)C	5920 nM	44%	1500 nM	10000 nM	10000 nM	84 nM	107%	> 1000 nM	–
CC1=CCC(C)(C)c2cc(C(/C=C/c3ccc(C(=O)O)cc3F)=N/O)ccc21	168 nM	86%	256 nM	11000 nM	7000 nM	2 nM	92%	> 1000 nM	–
CC1(C)CCC(C)(C)c2cc(C(C=Cc3ccc(C(=O)O)cc3F)=NO)ccc21 [drawing 11]	118 nM	85%	34 nM	8000 nM	8000 nM	0.85 nM	76%	> 1000 nM	–
CC1(C)CC(C)(C)c2cc(C(C=Cc3ccc(C(=O)O)cc3F)=NO)ccc21	114 nM	79%	25 nM	25000 nM	14000 nM	1 nM	72%	> 1000 nM	–
COc1cc2c(cc1C(/C=C/c1ccc(C(=O)O)cc1)=N/O)C(C)(C)CCC2(C)C	1270 nM	65%	648 nM	2500 nM	2000 nM	19 nM	98%	80000 nM	29%
CC1(C)CC(C)(C)c2cc(C(C=Cc3ccc(C(=O)O)cc3)=NO)ccc2O1 [drawing 24]	> 10000 nM	–	> 10000 nM	> 10000 nM	> 10000 nM	> 10000 nM	–	> 10000 nM	–

Other lines, results leading:

EC50 (RARβ [1])	% Efficiency β (RARβ [1])	Ki (RARγ [2])	Ki (RARβ [3])	Ki (RARα [4])	EC50 (RARγ [5])	% Efficiency γ (RARγ [5])	EC50 (RARα [6])	% Efficiency α (RARα [6])	SMILES
173 nM	60%	27000 nM	31000 nM	12000 nM	204 nM	65%	12000 nM	42%	CC1(C)CCCc2cc(C(C=Cc3ccc(C(=O)O)cc3)=NO)ccc21 [drawing 17]
54 nM	95%	6 nM	1300 nM	3000 nM	0.3 nM	91%	7000 nM	38%	CC1=CCC(C)(C)c2cc(C(/C=C/c3ccc(C(=O)O)cc3)=N/O)ccc21
65 nM	106%	5 nM	1200 nM	6000 nM	0.09 nM	97%	2120 nM	51%	CC1(C)CCCc2ccc(C(C=Cc3ccc(C(=O)O)cc3)=NO)cc21 [drawing 12]
432 nM	88%	16 nM	4700 nM	22000 nM	3 nM	98%	> 1000 nM	–	CC1(C)CCCc2ccc(C(C=Cc3ccc(C(=O)O)cc3)=NO)cc21 [drawing 14]
93 nM	118%	39 nM	11000 nM	6000 nM	2 nM	91%	134 nM	55%	CC1(C)CC(C)(C)c2cc(C(C=Cc3ccc(C(=O)O)cc3)=NO)ccc21 [drawing 31]
62 nM	133%	46 nM	1200 nM	5200 nM	44 nM	97%	118 nM	39%	CC1(C)CCCc2ccc(C(/C=C/c3ccc(C(=O)O)cc3F)=N/O)cc21
